Test results from US8815946B2, “Inhibition of proliferation and fibrotic response of activated corneal stromal cells” (University of Pittsburgh—of the Commonwealth System of …, priority 2008, dated 2014).

Key:
Type in all cases: cell-based
[1] = tested on: normal human corneal fibroblasts; assay: Cell proliferation analysis, human corneal stromal cells
Protocol: FIGS. 1A-1C. Effect of ethyl pyruvate on the growth of human corneal stromal cells. Corneal stromal cells in P2 growing in DMEM/F12 with 10% FBS were subcultured into desired number of 35 mm tissue culture dishes. After 24 hrs of incubation, the media were replaced with DMEM/F12 medium containing 1% FBS with or without EP (FIG. 1A) or with the same medium containing TGF-β1 or b-FGF/HS with or without EP (FIG. 1B and FIG. 1C, respectively). The cells in several marked regions were counted every 24 hours as described in Methods. The data points are average (±SE) from two separate experiments.
To study the effect of EP on cell proliferation, normal human corneal fibroblasts growing in DMEM/F12 with 10% FBS were subcultured into the desired number of 35 mm tissue culture dishes at a density of 5×10^4 cells/per dish. […] Several regions were marked on the bottom of the dishes and cells in marked regions were counted at 24 hr intervals for five days. Phase contrast digital micrographs of the cells in the marked fields were captured and the cells in the images were counted using MetaMorph® imaging software. The rate of proliferation was evaluated by determining the number of cells at specific time points after treatment/number of cells at the start of the treatment. […]

α-SMA [2] = assay: Immunocytochemical analysis of α-SMA expression, rabbit corneal stromal cells; conditions: 10 mM EP
Protocol: FIG. 4. Immunocytochemical analysis of α-SMA expression. Rabbit corneal stromal cells in P2 growing in DMEM/F12 with 10% FBS were subcultured into 35 mm tissue culture dishes. After 24 hrs of incubation, the media were replaced with DMEM/F12 medium containing 1% FBS and TGF-β1 with or without (control) 10 mM EP and incubated for four days (media were changed every 24 hours). The cells were fixed and stained for α-SMA (green) using an indirect fluorescence technique as described herein.
(§1) For immunocytochemical analyses, the cells were cultured on glass cover slips or tissue culture dishes. Cells were rinsed with phosphate-buffered saline (PBS), fixed with paraformaldehyde-lysine-periodate and permeabilized with PIPES buffer containing 0.2% Triton X-100, as described previously (Guerriero et al., Invest. Opthalmol. Vis. Sci. 2007; 48: 627-635). Fixed and permeabilized cells were reacted with 10% heat-inactivated goat serum in PBS, pH 7.5, for 45 minutes to block the nonspecific binding of the secondary antibody, rinsed with PBS, and then treated with the primary and secondary antibodies as described previously (Guerriero et al. Invest. Opthalmol. Vis. Sci. 2007; 48: 627-635). Primary antibodies included monoclonal rat anti-α smooth muscle actin (SMA) and anti-fibronectin. […]

α-SMA [3] = assay: Western blot analyses of α-SMA, human corneal stromal cells
Protocol: (§2) FIG. 5. Western blot analyses of α-SMA. Human corneal stromal cells in P2 growing in DMEM/F12 with 10% FBS were subcultured into 60 mm tissue culture dishes. After 24 hrs of incubation, the media were replaced with DMEM/F12 medium containing 1% FBS and TGF-β1 with or without (control) different concentrations of EP as indicated and incubated for two and four days (media were changed every 24 hours). The cells were extracted in RIPA buffer and the extracts containing 5 μg of total proteins were loaded per lane for Western blot analysis.
(§3) Keratocytes or fibroblasts grown under different culture conditions were extracted in RIPA buffer (9.1 mM dibasic sodium phosphate, 1.7 mM monobasic sodium phosphate, 150 mM NaCl, pH, 7.4, 1% Nonidet P-40, 0.5% sodium deoxycholate, 0.1% SDS, 0.03 TIU/mL aprotinin, 1 mM sodium orthovanadate, and 100 μg/mL phenylmethylsulfonyl fluoride (PMSF)). Aliquots of cell extracts containing 50 or 100 μg protein were subjected to SDS-PAGE. […] Immunoreactive bands were detected using chemiluminescence Western chemiluminescence reagents. […]

[4] = tested on: human corneal stromal cells; assay: Toxicity to cultured human corneal stromal cells; conditions: possibly due to low pH of the culture medium
Protocol: Higher than 20 mM concentrations were toxic to the cells, possibly due to the low pH of the culture medium resulting from high EP concentrations.

fibronectin = assay: Immunocytochemical analysis of fibronectin expression, rabbit corneal stromal cells; conditions: rabbit corneal cells treated with TGF-β1
Protocol: FIGS. 6A-6B. Immunocytochemical analysis of fibronectin expression. Normal human stromal cells (FIG. 6A) or rabbit corneal stromal cells (FIG. 6B) in P2 growing in DMEM/F12 with 10% FBS were subcultured into 35 mm tissue culture dishes. After 24 hrs of incubation, the media were replaced with DMEM/F12 medium containing 1% FBS and TGF-β1 with or without (control) 10 mM EP and incubated for four days (media were changed every 24 hours). The cells were fixed and double stained for fibronectin (green) and phalloidin (red) using an indirect fluorescence technique as described herein.
as §1

cellular fibronectin = assay: Western blot analyses of cellular fibronectin, human corneal stromal cells; conditions: TGF-β1, two and four days
Protocol: as §2, with “7.” for “5.”, “cellular fibronectin.” for “α-SMA.”, “different EP” for “different”, “concentrations” for “concentrations of EP”
as §3

For `CCOC(=O)C(C)=O` [ethyl pyruvate], the cell number ([1]; 1% FBS with or without TGF-β1 or b-FGF/HS, 10 mM and 15 mM EP, counted every 24 hours) was “no significant increases in cell number”, the “proliferation of human corneal fibroblasts and myofibroblasts” value ([1]; 10-20 mM in the medium) was “inhibited proliferation” and the “TGF-β1 induced expression of α-SMA (immunocytochemical)” value (α-SMA [2]) was “downregulated”. The “EP concentration with highest downregulation of α-SMA” value (α-SMA [3]; TGF-β1) was 20 mM, the “TGF-β1 induced expression of α-SMA (Western blot)” value (α-SMA [3]; two and four days, concentration dependent) was “down-regulated” and the “concentrations toxic to the cells” value [4] was “Higher than 20 mM”. The “fibronectin deposition in the matrix (immunocytochemical)” value (fibronectin) was “concentration dependent downregulation” and the “downregulation of fibronectin by Western blot of cell extracts (including the matrix)” value (cellular fibronectin) was “confirmed”.
